Reference: patent publication EP0183129A1, “Quinolonecarboxylic acid derivatives” (KYORIN PHARMACEUTICAL CO., LTD., priority 1984, dated 1986)
≈ marks a conversion by molar mass, not a printed value. Counter-ions that a name gives are not always drawn. Like-named read-outs stand apart in the source and are kept apart here.

Assays:
C. ramosum = assay: In vitro antibacterial activity, MIC (standard strain); assay type: cell-based; details: Thomasclavelia ramosa; C. ramosum; 10^6 cells/ml; standard strain; read-out: MIC
S. pyogenes 3130 = assay: In vitro antibacterial activity, MIC (clinical isolates); assay type: cell-based; details: Streptococcus pyogenes, read-out: MIC
[1] = tested on: Acinetobacter anitratus IID 876; assay: In vitro antibacterial activity, MIC (standard strain); assay type: cell-based; details: Acinetobacter calcoaceticus, IID876, Acinetobacter anitratus IID 876; 10^6 cells/ml; standard strain; read-out: MIC
S. agalactiae 4368 = assay: In vitro antibacterial activity, MIC (clinical isolates); assay type: cell-based; details: Streptococcus agalactiae; S. agalactiae 4368; 10^6 cells/ml; clinical isolate; read-out: MIC
P. aeruginosa IID 1210 = assay: In vitro antibacterial activity, MIC (standard strain); assay type: cell-based; details: Pseudomonas aeruginosa, IID1210; P. aeruginosa IID 1210; 10^6 cells/ml; standard strain; read-out: MIC
S. faecalis 49 = assay: In vitro antibacterial activity, MIC (clinical isolates); assay type: cell-based; details: Enterococcus faecalis; S. faecalis 49; 10^6 cells/ml; clinical isolate; read-out: MIC
E. coli ML 4707 = assay: In vitro antibacterial activity, MIC (standard strain); assay type: cell-based; details: Escherichia coli, ML4707
[2] = tested on: Streptococcus pyogenes S-8; assay: as above; assay type: cell-based; details: S8; Streptococcus pyogenes S-8; 10^6 cells/ml; standard strain; read-out: MIC
S. faecalis 402 = assay: In vitro antibacterial activity, MIC (clinical isolates); assay type: cell-based; details: Enterococcus faecalis; S. faecalis 402; 10^6 cells/ml; clinical isolate; read-out: MIC
[3] = tested on: Enterobacter cloacae IID 977; assay: In vitro antibacterial activity, MIC (standard strain); assay type: cell-based; details: Enterobacter cloacae, IID977, Enterobacter cloacae IID 977; 10^6 cells/ml; standard strain; read-out: MIC
[4] = tested on: Morganella morganii IID 602; assay: as above; assay type: cell-based; details: IID602; Morganella morganii IID 602; 10^6 cells/ml; standard strain; read-out: MIC
S. agalactiae 4468 = assay: In vitro antibacterial activity, MIC (clinical isolates); assay type: cell-based; details: Streptococcus agalactiae; S. agalactiae 4468; 10^6 cells/ml; clinical isolate; read-out: MIC
[5] = tested on: Salmonella entritidis IID 604; assay: In vitro antibacterial activity, MIC (standard strain); assay type: cell-based; details: IID604; Salmonella entritidis IID 604; 10^6 cells/ml; standard strain; read-out: MIC
S. aureus Smith = assay: as above; assay type: cell-based, Staphylococcus aureus; details: Staphylococcus aureus, S. aureus Smith, 10^6 cells/ml, standard strain
B. fragilis 0558 = assay: as above; assay type: cell-based, Bacteroides fragilis; details: Bacteroides fragilis, 0558, B. fragilis 0558; 10^6 cells/ml; standard strain; read-out: MIC
S. pneumoniae IID 552 = assay: as above; assay type: cell-based; details: Streptococcus pneumoniae, IID552; S. pneumoniae IID 552; 10^6 cells/ml; standard strain; read-out: MIC
[6] = tested on: Serratia marcescens IID 618; assay: as above; assay type: cell-based; details: Serratia marcescens, IID618, Serratia marcescens IID 618; 10^6 cells/ml; standard strain; read-out: MIC
[7] = tested on: Klebsiella pneumoniae KY(GN)6445; assay: as above; assay type: cell-based; details: Klebsiella pneumoniae KY(GN)6445; 10^6 cells/ml; standard strain; read-out: MIC
S. agalactiae 4049 = assay: In vitro antibacterial activity, MIC (clinical isolates); assay type: cell-based; details: Streptococcus agalactiae; S. agalactiae 4049; 10^6 cells/ml; clinical isolate; read-out: MIC
S. marcescens GN 7577 = assay: In vitro antibacterial activity, MIC (standard strain); assay type: cell-based; details: Serratia marcescens, GN7577; S. marcescens GN 7577; 10^6 cells/ml; standard strain; read-out: MIC
[8] = tested on: Proteus vulgaris IFO 3167; assay: as above; assay type: cell-based; details: IFO3167; Proteus vulgaris IFO 3167; 10^6 cells/ml; standard strain; read-out: MIC
S. pneumoniae 15 = assay: In vitro antibacterial activity, MIC (clinical isolates); assay type: cell-based; details: Streptococcus pneumoniae; S. pneumoniae 15; 10^6 cells/ml; clinical isolate; read-out: MIC
S. faecalis 214 = assay: as above; assay type: cell-based; details: Enterococcus faecalis; S. faecalis 214; 10^6 cells/ml; clinical isolate; read-out: MIC
S. agalactiae 4470 = assay: as above; assay type: cell-based; details: Streptococcus agalactiae; S. agalactiae 4470; 10^6 cells/ml; clinical isolate; read-out: MIC
[9] = tested on: Escherichia coli NIHJ JC-2; assay: In vitro antibacterial activity, MIC (standard strain); assay type: cell-based; details: Escherichia coli
E. coli ATCC 10536 = assay: as above; assay type: cell-based; details: Escherichia coli, ATCC10536
[10] = tested on: Fusobacterium varium KYA 8501; assay: as above; assay type: cell-based; details: Fusobacterium varium, KYA8501, Fusobacterium varium KYA 8501; 10^6 cells/ml; standard strain; read-out: MIC
[11] = tested on: Clostridium perfringens KYA 13123; assay: microbe, parasite or virus in culture; assay type: cell-based; details: KYA13123
S. pyogenes 3102 = assay: In vitro antibacterial activity, MIC (clinical isolates); assay type: cell-based; details: Streptococcus pyogenes; S. pyogenes 3102; 10^6 cells/ml; clinical isolate; read-out: MIC
S. pyogenes 3107 = assay: as above; assay type: cell-based; details: Streptococcus pyogenes; S. pyogenes 3107; 10^6 cells/ml; clinical isolate; read-out: MIC
P. aeruginosa IFO 12689 = assay: In vitro antibacterial activity, MIC (standard strain); assay type: cell-based, Pseudomonas aeruginosa; details: Pseudomonas aeruginosa, IFO12689; P. aeruginosa IFO 12689; 10^6 cells/ml; standard strain; read-out: MIC
[12] = E. coli ML 4707, 10^6 cells/ml, standard strain, read-out: MIC
[13] = NIHJJC2, Escherichia coli NIHJ JC-2, 10^6 cells/ml, standard strain, read-out: MIC
[14] = E. coli ATCC 10536, 10^6 cells/ml, standard strain, read-out: MIC

| SMILES | MIC (C. ramosum) [µg/mL] | MIC (S. pyogenes 3130) [µg/mL] | MIC [1] [µg/mL] | MIC (S. agalactiae 4368) [µg/mL] | MIC (P. aeruginosa IID 1210) [µg/mL] | MIC (S. faecalis 49) [µg/mL] | MIC [2] [µg/mL] | MIC (S. faecalis 402) [µg/mL] | MIC [3] [µg/mL] | MIC [4] [µg/mL] | MIC (S. agalactiae 4468) [µg/mL] | MIC [5] [µg/mL] | MIC (B. fragilis 0558) [µg/mL] | MIC (S. pneumoniae IID 552) [µg/mL] | MIC [6] [µg/mL] | MIC [7] [µg/mL] | MIC (S. agalactiae 4049) [µg/mL] | MIC (S. marcescens GN 7577) [µg/mL] | MIC [8] [µg/mL] | MIC (S. pneumoniae 15) [µg/mL] | further results |
| --- | --- | --- | --- | --- | --- | --- | --- | --- | --- | --- | --- | --- | --- | --- | --- | --- | --- | --- | --- | --- | --- |
| CCCNCC1CCN(c2c(F)cc3c(=O)c(C(=O)O)cn(C4CC4)c3c2F)C1 (stereo not drawn) [Example 10, 1-Cyclopropyl-6,8-difluoro-1,4-dihydro-4-oxo-7-(3-n-propylaminomethyl-l-pyrrolidinyl)-3-quinolinecarboxylic acid hydrochloride] | 1.56 | 0.2 | 0.05 | 0.39 | 3.13 | 0.39 | 0.39 | 0.39 | 0.2 | 0.025 | 0.39 | 0.1 | 0.78 | 0.39 | 0.2 | 0.05 | 0.78 | 3.13 | 0.025 | 0.39 | MIC (E. coli ML 4707; [12]): 0.2 µg/mL; MIC (S. aureus Smith; read-out: MIC): 0.05 µg/mL; MIC (S. faecalis 214): 0.39 µg/mL; MIC (S. agalactiae 4470): 0.39 µg/mL; MIC [9, 13]: 0.05 µg/mL; MIC (E. coli ATCC 10536; [14]): 0.1 µg/mL; MIC [10]: 6.25 µg/mL; MIC [11]: 0.39 µg/mL; MIC (S. pyogenes 3102): 0.2 µg/mL; MIC (S. pyogenes 3107): 0.2 µg/mL; MIC (P. aeruginosa IFO 12689): 3.13 µg/mL |
| CC(C)NCC1CCN(c2c(F)cc3c(=O)c(C(=O)O)cn(C4CC4)c3c2F)C1.Cl (centres unmarked) [Example 11, 1-Cyclopropyl-6,8-difluoro-1,4-dihydro-7-(3-isopropylaminomethyl-1-pyrrolidinyl)-4-oxo-3-quinolinecarboxylic acid hydrochloride] | 0.78 | 0.2 | 0.1 | 0.2 | 3.13 | 0.2 | 0.2 | 0.39 | 0.39 | 0.39 | 0.2 | 0.2 | 0.78 | 0.39 | 0.39 | 0.1 | 0.39 | 3.13 | 0.05 | 0.2 | MIC (E. coli ML 4707; [12]): 0.05 µg/mL; MIC (S. aureus Smith; read-out: MIC): 0.05 µg/mL; MIC (S. faecalis 214): 0.39 µg/mL; MIC (S. agalactiae 4470): 0.2 µg/mL; MIC [9, 13]: 0.05 µg/mL; MIC (E. coli ATCC 10536; [14]): 0.05 µg/mL; MIC [10]: 3.13 µg/mL; MIC [11]: 0.2 µg/mL; MIC (S. pyogenes 3102): 0.2 µg/mL; MIC (S. pyogenes 3107): 0.2 µg/mL; MIC (P. aeruginosa IFO 12689): 3.13 µg/mL |
| CNCC1CCN(c2c(F)cc3c(=O)c(C(=O)O)cn(C4CC4)c3c2Cl)C1 (stereo not drawn) [Example 12, 8-Chloro-l-cyclopropyl-6-fluoro-1,4-dihydro-7-(3-methylaminomethyl-1-pyrrolidinyl)-4-oxo-3-quinolinecarboxylic acid hydrochloride] | 0.39 | 0.05 | 0.05 | 0.05 | 1.56 | 0.05 | 0.05 | 0.1 | 0.05 | 0.1 | 0.05 | 0.05 | 0.1 | 0.05 | 0.1 | 0.05 | 0.05 | 0.78 | 0.025 | 0.05 | MIC (E. coli ML 4707; [12]): 0.025 µg/mL; MIC (S. aureus Smith; read-out: MIC): 0.025 µg/mL; MIC (S. faecalis 214): 0.1 µg/mL; MIC (S. agalactiae 4470): 0.05 µg/mL; MIC [9, 13]: 0.025 µg/mL; MIC (E. coli ATCC 10536; [14]): 0.025 µg/mL; MIC [10]: 0.39 µg/mL; MIC [11]: 0.1 µg/mL; MIC (S. pyogenes 3102): 0.05 µg/mL; MIC (S. pyogenes 3107): 0.05 µg/mL; MIC (P. aeruginosa IFO 12689): 0.78 µg/mL |
| CCNCC1CCN(c2c(F)cc3c(=O)c(C(=O)O)cn(C4CC4)c3c2Cl)C1 (stereo not drawn) [Example 13, 8-Chloro-l-cyclorpropyl-6-fluoro-1,4-dihydro-7-(3-ethylaminomethyl-l-pyrrolidinyl)-4-oxo-3-quinolinecarboxylic acid] | 0.2 (≈ 0.49 µM) | 0.05 (≈ 0.123 µM) | 0.05 (≈ 0.123 µM) | 0.025 (≈ 0.0613 µM) | 1.56 (≈ 3.82 µM) | 0.05 (≈ 0.123 µM) | 0.05 (≈ 0.123 µM) | 0.1 (≈ 0.245 µM) | 0.1 (≈ 0.245 µM) | 0.1 (≈ 0.245 µM) | 0.05 (≈ 0.123 µM) | 0.05 (≈ 0.123 µM) | 0.1 (≈ 0.245 µM) | 0.05 (≈ 0.123 µM) | 0.1 (≈ 0.245 µM) | 0.05 (≈ 0.123 µM) | 0.05 (≈ 0.123 µM) | 0.78 (≈ 1.91 µM) | 0.025 (≈ 0.0613 µM) | 0.025 (≈ 0.0613 µM) | MIC (E. coli ML 4707; [12]): 0.025 µg/mL (≈ 0.0613 µM); MIC (S. aureus Smith; read-out: MIC): 0.025 µg/mL (≈ 0.0613 µM); MIC (S. faecalis 214): 0.1 µg/mL (≈ 0.245 µM); MIC (S. agalactiae 4470): 0.05 µg/mL (≈ 0.123 µM); MIC [9, 13]: 0.0125 µg/mL (≈ 0.0306 µM); MIC (E. coli ATCC 10536; [14]): 0.025 µg/mL (≈ 0.0613 µM); MIC [10]: 0.39 µg/mL (≈ 0.956 µM); MIC [11]: 0.05 µg/mL (≈ 0.123 µM); MIC (S. pyogenes 3102): 0.05 µg/mL (≈ 0.123 µM); MIC (S. pyogenes 3107): 0.05 µg/mL (≈ 0.123 µM); MIC (P. aeruginosa IFO 12689): 1.56 µg/mL (≈ 3.82 µM) |
| NCC1CCN(c2c(F)cc3c(=O)c(C(=O)O)cn(C4CC4)c3c2Cl)C1 (stereo not drawn) [Example 14, 8-Chloro-l-cyclopropyl-6-fluoro-l,4-dihydro-7-(3-aminomethyl-l-pyrrolidinyl)-4-oxo-3-quinolinecarboxylic acid hydrochloride] | 0.39 | 0.025 | 0.05 | 0.05 | 0.39 | 0.05 | 0.05 | 0.05 | 0.05 | 0.05 | 0.05 | 0.025 | 0.05 | 0.025 | 0.05 | 0.025 | 0.05 | 0.39 | 0.025 | 0.025 | MIC (E. coli ML 4707): 0.0125 µg/mL; MIC (S. aureus Smith): 0.0125 µg/mL; MIC (S. faecalis 214): 0.05 µg/mL; MIC (S. agalactiae 4470): 0.05 µg/mL; MIC ([9]; NIHJJC2): 0.0125 µg/mL; MIC (E. coli ATCC 10536): 0.0125 µg/mL; MIC [10]: 0.39 µg/mL; MIC [11]: 0.05 µg/mL; MIC (S. pyogenes 3102): 0.025 µg/mL; MIC (S. pyogenes 3107): 0.025 µg/mL; MIC (P. aeruginosa IFO 12689): 0.39 µg/mL |
